What all share (format): cell-based
Data set [1] concerns HepG2 cells. The data set can be described thus: MTT assay in HepG2 cells. The conditions noted are these: Homo sapiens. As to the method:
(§1) The inventors identified nine inhibitors and perfomed an EdU assay after treating non-malignant (HEK293, AML12) and malignant (HepG2, MzChA-1, HT-29, RKO) cells with varying concentrations of GIT1 inhibitor for 24 hours (results are mean±SE from 3 independent experiments done in duplicates, *p<0.05 vs. DMSO). An MTT assay was also performed after treating primary human and mouse hepatocytes and liver and colon cancer cells with varying concentrations of GIT1 inhibitor for 24 hours (results are mean±SE from 3 independent experiments done in duplicates, *p<0.05 vs. DMSO). […] Percoll may be used to remove dead human hepatocytes.
On the technique in general: Tetrazolium dyes change colour on reduction, which living cells bring about.

The subject of data set [2] is RKO cells. The data set can be described thus: MTT assay in RKO cells. To be noted: Homo sapiens. As to the method: as §1
Data set [3] deals with mouse hepatocytes. The experiment in a line: Toxicity in mouse hepatocytes. The conditions noted are these: data not shown. As to the method:
as §1

For data set [4], the system named is human hepatocytes. The experiment in a line: Toxicity in human hepatocytes. To be noted: data not shown. The procedure: as §1

For `COc1cccc(NC(=O)Cn2cnc3c(sc4nc5c(cc43)COC(C)(C)C5)c2=O)c1` [Compound C39], the IC50 is more than 25 µM in data set [1] and more than 50 µM in data set [2].
As for `CC(=O)c1ccc(NC(=O)Cn2cnc3c(sc4nc5c(cc43)COC(C)(C)C5)c2=O)cc1` [Compound C38], the IC50 was more than 50 µM in data set [1] and more than 25 µM in data set [2].
Consider `CC1(C)Cc2nc3sc4c(=O)n(CC(=O)N5CCOCC5)cnc4c3cc2CO1` [Compound C33], for which the IC50 in data set [1] was 0.83 µM; in data set [2], 0.98 µM. Moreover, the “toxicity in mouse hepatocytes” value in data set [3] was “no toxicity”. For the same molecule, the “toxicity in human hepatocytes” value in data set [4] is given as “no toxicity”.

The term IC50 denotes the point on the concentration scale where inhibition reaches its midpoint. Read a high IC50 as a need for much substance.

The values are drawn from patent US20260356849A1, “COMPOUNDS AND METHODS FOR TREATING CANCERS” (CEDARS-SINAI MEDICAL CENTER, priority 2022, published 2026).
